{
  "source": "patent US20210077529A1",
  "about": "“T-CELL EXHAUSTION, METHODS & COMPOSITIONS RELATING THERETO” (MEMORIAL SLOAN KETTERING CANCER CENTER, priority 2018, published 2021)",
  "format_in_all_cases": "cell-based, mouse",
  "key": {"exhausted CAR-T cells [1]": {"test_system": "exhausted CAR-T cells", "assay": "Proliferative capacity of exhausted CD19-specific CAR-T cells isolated from lymphoma-bearing mice", "conditions": "exhausted CD19 CAR-T cells isolated 14 days after transfer into A20 lymphoma mice; 10 mM in culture media", "text": "(§1) FIG. 15A-C N-acetylcysteine reverses CAR-T cell exhaustion. Exhausted CAR-T cells were generated by transferring CD19-specific CAR-T cells into mice bearing CD19-expressing A20 lymphoma cells. After 14 days, CAR-T cells were isolated from mouse spleens and interrogated for proliferative capacity, oxidative stress, and cytokine production. […] The in vitro system that developed and described herein allowed for metabolic evaluations that led directly to the identification of oxidative stress as a hallmark of T-cell exhaustion. We therefore evaluated whether adding N-acetylcysteine (10 mM) to T-cell media every 48 hours during days 2-8 of chronic stimulation would be sufficient to reverse the effects of chronic stimulation on T-cell growth and effector function. […] FIGS. 12-16. Moreover, this strategy was also effective in reversing the exhaustion of chimeric antigen receptor (CAR) T-cells. For this assay, T-cells retrovirally infected to express a chimeric antigen receptor targeting CD19 were adoptively transferred into mice who had previously received A20 B-cell lymphoma cells. This protocol is known to generate “exhausted” CAR T-cells by Day 14 following CAR T-cell transfer. […] FIG. 16. To determine this, T-cells that had been acutely or chronically stimulated in the presence or absence of 10 mM N-acetylcysteine were assessed for Tcf7 expression via real-time quantitative PCR. […]"}, "[2]": {"test_system": "chronically stimulated T-cells", "assay": "Cytokine production of chronically stimulated T-cells after re-stimulation (flow cytometry)", "conditions": "CD3+ T cells, 8 days of culture, N-acetylcysteine 10 mM", "experimental": "(§2) FIG. 14A-D. N-acetylcysteine reverses endogenous T-cell exhaustion. Isolated CD3+ T cells were stimulated acutely or chronically as described elsewhere herein in the without anti-PD-L1 (FIG. 14A) or in presence or absence of anti-PD-L1 (FIG. 14B) and/or N-acetylcysteine (10 mM) (FIG. 14C). Following 8 days of culture, cells were re-stimulated for cytokine production (above) or co-cultured with tumor cells expressing specific antigen.\nThe expression of the inhibitory receptors PD-1, LAG-3, and PD-L1 and the effector cytokines IFNγ, TNFα and IL2 was analyzed by flow cytometry. Briefly, cells that were stimulated acutely or chronically for 8 days as described herein were re-stimulated after overnight rest using 50 ng/mL phorbol myristate acetate (PMA) and 500 ng/mL ionomycin. […]\nThe in vitro system that developed and described herein allowed for metabolic evaluations that led directly to the identification of oxidative stress as a hallmark of T-cell exhaustion. We therefore evaluated whether adding N-acetylcysteine (10 mM) to T-cell media every 48 hours during days 2-8 of chronic stimulation would be sufficient to reverse the effects of chronic stimulation on T-cell growth and effector function. […] To determine this, T-cells that had been acutely or chronically stimulated in the presence or absence of 10 mM N-acetylcysteine were assessed for Tcf7 expression via real-time quantitative PCR. […]"}, "[3]": {"test_system": "chronically stimulated T-cells", "assay": "Intracellular ophthalmate levels in chronically stimulated T-cells (LC-MS)", "conditions": "chronically stimulated CD3+ T cells, 8 days, 10 mM N-acetylcysteine", "experimental": "FIG. 18A-C. Ophthalmate is a biomarker for oxidative stress in exhausted T-cells and is reversed by N-acetylcysteine. Isolated CD3+ T cells were stimulated acutely or chronically as described herein in the presence or absence of N-acetylcysteine (10 mM). After 8 days, cells were analyzed for intracellular ophthalmate levels by LC-MS. […] Ophthalmate levels were higher in chronically stimulated T-cells (FIG. 18B) and this was reversed by administration of N-acetylcysteine (FIG. 18C)."}, "Tcf7": {"test_system": "Tcf7", "assay": "Tcf7 expression in chronically stimulated T-cells (real-time quantitative PCR)", "conditions": "chronically stimulated CD3+ T cells, 8 days, 10 mM N-acetylcysteine", "text": "FIG. 16A-B. N-acetylcysteine restores T-cell memory. Isolated CD3+ T cells were stimulated acutely or chronically as described herein. […] Tumor-infiltrating T-cells from patients with melanoma who received checkpoint inhibitors were extracted and analyzed by single-cell RNA-seq. […] The in vitro system that developed and described herein allowed for metabolic evaluations that led directly to the identification of oxidative stress as a hallmark of T-cell exhaustion. We therefore evaluated whether adding N-acetylcysteine (10 mM) to T-cell media every 48 hours during days 2-8 of chronic stimulation would be sufficient to reverse the effects of chronic stimulation on T-cell growth and effector function. […] FIGS. 12-16. Moreover, this strategy was also effective in reversing the exhaustion of chimeric antigen receptor (CAR) T-cells. For this assay, T-cells retrovirally infected to express a chimeric antigen receptor targeting CD19 were adoptively transferred into mice who had previously received A20 B-cell lymphoma cells. This protocol is known to generate “exhausted” CAR T-cells by Day 14 following CAR T-cell transfer. […] FIG. 16. To determine this, T-cells that had been acutely or chronically stimulated in the presence or absence of 10 mM N-acetylcysteine were assessed for Tcf7 expression via real-time quantitative PCR. […]"}, "exhausted CAR-T cells [4]": {"test_system": "exhausted CAR-T cells", "assay": "Oxidative stress (reactive oxygen species) in exhausted CAR-T cells", "conditions": "exhausted CD19 CAR-T cells isolated 14 days after transfer, re-stimulated with anti-CD3 and anti-CD28; 10 mM", "text": "as §1"}, "[5]": {"test_system": "tumor cells expressing specific antigen", "assay": "Killing of tumor cells expressing specific antigen by chronically stimulated T-cells (co-culture)", "experimental": "as §2\nUltimately, the hallmark of T-cell exhaustion in the context of both chronic viral infections and cancer requires a loss of effector function, defined as the absence of target cell killing. Therefore, it was imperative to establish that exhausted cells generated using this in vitro system were not able to kill target cells. […] 24 hours later luminescence was measured using a luminometer. Killing efficacy was determined by luminescence relative to B16 cells co-cultured with T-cells in the absence of specific peptide.\nThe in vitro system that developed and described herein allowed for metabolic evaluations that led directly to the identification of oxidative stress as a hallmark of T-cell exhaustion. We therefore evaluated whether adding N-acetylcysteine (10 mM) to T-cell media every 48 hours during days 2-8 of chronic stimulation would be sufficient to reverse the effects of chronic stimulation on T-cell growth and effector function. […]"}, "exhausted CAR-T cells [6]": {"test_system": "exhausted CAR-T cells", "assay": "Cytokine production of exhausted CAR-T cells", "conditions": "exhausted CD19 CAR-T cells isolated 14 days after transfer; 10 mM", "text": "as §1"}, "[7]": {"test_system": "chronically stimulated T-cells", "assay": "Proliferation of chronically stimulated T-cells (polyclonal in vitro exhaustion model, Coulter counter counts)", "conditions": "CD3+ T cells, chronic anti-CD3/anti-CD28 stimulation days 2-8, 10 mM N-acetylcysteine", "experimental": "FIG. 13A-B. N-acetylcysteine restores proliferation of chronically stimulated T-cells. FIG. 13A—schematic representation of model/method. Isolated CD3+ T cells were stimulated for 2 days with plate-bound anti-CD3 and anti-CD28. Following 2-day stimulation, cells were either incubated in IL-2 alone or serially re-plated on plates coated with anti-CD3 and anti-CD28 every 2 days for an additional 6 days in the presence or absence of 10 mM N-acetylcysteine. Cells were counted every 2 days using a Coulter counter. […] FIG. 3A and FIG. 3F provide schematic representations of a polyclonal T cell exhaustion model in which a generalized TCR and CD28 stimulus is used. Utilizing a generalized TCR and CD28 stimulus has multiple advantages. […] We therefore evaluated whether adding N-acetylcysteine (10 mM) to T-cell media every 48 hours during days 2-8 of chronic stimulation would be sufficient to reverse the effects of chronic stimulation on T-cell growth and effector function. […] To determine this, T-cells that had been acutely or chronically stimulated in the presence or absence of 10 mM N-acetylcysteine were assessed for Tcf7 expression via real-time quantitative PCR. […]"}},
  "note": "“Also recorded” adds a separate entry of the source.",
  "data": [
    {"smiles": "CC(=O)N[C@@H](CS)C(=O)O", "note": "[N-acetylcysteine]", "values": [
      {"measurement": "CAR-T cell proliferation", "setting": "exhausted CAR-T cells [1]", "result": "enhanced CAR-T cell proliferation; also recorded: allowed CAR T-cells to proliferate"},
      {"measurement": "cytokine production of chronically stimulated T-cells", "setting": "[2]", "result": "effectively reversed; also recorded: fully reverse"},
      {"measurement": "intracellular ophthalmate levels", "setting": "[3]", "result": "reversed"},
      {"measurement": "Tcf7 expression (memory marker)", "setting": "Tcf7", "result": "restored Tcf7 expression; also recorded: largely restored"},
      {"measurement": "oxidative stress (reactive oxygen species) in CAR-T cells", "setting": "exhausted CAR-T cells [4]", "result": "reducing oxidative stress; also recorded: could be reversed"},
      {"measurement": "anti-PD-1 responsiveness of chronically stimulated T-cells", "setting": "[5]; 10 mM N-acetylcysteine every 48 hours during days 2-8 of chronic stimulation", "result": "fully restored"},
      {"measurement": "tumor / target cell killing by chronically stimulated T-cells", "setting": "[5]; 8 days of culture, co-cultured with tumor cells expressing specific antigen, N-acetylcysteine 10 mM", "result": "effectively reversed; also recorded: fully restored"},
      {"measurement": "CAR-T cell cytokine production", "setting": "exhausted CAR-T cells [6]", "result": "enhanced; also recorded: allowed CAR T-cells to proliferate and produce cytokine"},
      {"measurement": "T-cell proliferation under chronic stimulation", "setting": "[7]", "result": "fully reverses the impairment in proliferation; also recorded: fully reverse"}
    ]}
  ]
}
